Laboratory results as given in patent US7439363B2, “Substituted indazoly(indoly)maleimide derivatives as kinase inhibitors” (Janssen Parmaceutica N.V., priority 2003, dated 2008).

Legend:
Assay type in all cases: biochemical
[1] = molecular target: PKC isoform β-II (Homo sapiens, UniProt P05771); experiment: Protein Kinase C histone-based assay, PKC beta II; settings: histone III substrate, 30 μM ATP
Method: (§1) Protein Kinase C Histone-Based Assay
(§2) Compounds were evaluated for PKC selectivity using histone III as the substrate. The PKC isoforms α, β-II or γ were added to a reaction mixture that contained 20 mM HEPES, (pH 7.4), 940 μM CaCl2, 10 mM MgCl2, 1 mM EGTA. 100 μg/mL phosphatidylserine, 20 μg/mL diacylglycerol, 30 μM ATP, 1 μCi (^33P)ATP and 200 μg/mL histone III. The reaction was incubated for 10 min at 30° C. Reactions were terminated by TCA precipitation and spotting on Whatman P81 filters. Filters were washed in 75 mM phosphoric acid and the radioactivity quantified by liquid scintillation counting.

[2] = molecular target: PKC isoform α (Homo sapiens, UniProt P17252); experiment: Protein Kinase C histone-based assay, PKC alpha; settings: histone III substrate, 30 μM ATP
Method: as §1, §2

[3] = molecular target: PKC isoform γ (Homo sapiens, UniProt P05129); experiment: Protein Kinase C histone-based assay, PKC gamma; settings: histone III substrate, 30 μM ATP
Method: as §1, §2

[4] = molecular target: T1, recombinant rabbit GSK-3β protein (Oryctolagus cuniculus, UniProt G1T8E2); experiment: Glycogen Synthase Kinase-3 assay (PPI-2 phosphorylation); settings: for IC50: PPI-2 substrate, 33P-ATP
T1 construct: purchased New England Biolabs
T1 sequence (G1T8E2 1-432): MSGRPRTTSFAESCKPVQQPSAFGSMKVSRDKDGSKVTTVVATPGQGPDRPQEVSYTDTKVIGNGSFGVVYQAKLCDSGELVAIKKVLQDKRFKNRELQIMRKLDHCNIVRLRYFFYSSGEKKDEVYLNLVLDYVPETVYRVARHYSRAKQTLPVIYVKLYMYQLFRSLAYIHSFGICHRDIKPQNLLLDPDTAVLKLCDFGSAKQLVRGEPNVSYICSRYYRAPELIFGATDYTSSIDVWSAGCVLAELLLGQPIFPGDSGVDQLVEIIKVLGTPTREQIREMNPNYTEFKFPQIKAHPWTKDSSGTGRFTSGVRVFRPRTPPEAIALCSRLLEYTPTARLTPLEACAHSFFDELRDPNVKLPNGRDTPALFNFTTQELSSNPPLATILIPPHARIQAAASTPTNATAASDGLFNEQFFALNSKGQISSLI
Method: Glycogen Synthase Kinase-3 Assay
Compounds were tested for the ability to inhibit recombinant rabbit GSK-3β protein using the following protocol. The test compound was added to a reaction mixture containing Protein phosphatase inhibitor-2 (PPI-2) (Calbiochem) (45 ng), rabbit GSK-3β protein (New England Biolabs) (0.75 units) and ^33P-ATP (1 μCi) in 50 mM Tris-HCl (pH 8.0), 10 mM MgCl2, 0.1% BSA, 1 mM DTT and 100 μM Sodium Vanadate. The mixture was reacted for 90 minutes at 30° C. to allow phosphorylation of the PPI-2 protein and then the protein in the reaction was precipitated using 10% TCA. The precipitated protein was collected on filter plates (MultiScreen-DV/Millipore), which were subsequently washed. Finally, the radioactivity was quantified using a TopCount Scintillation Counter (Packard). […] Staurosporine or Valproate, known inhibitors of GSK-3β, were used as a positive control for screening.

Sequence of PKC isoform β-II (P05771 1-673 isoform P05771-2): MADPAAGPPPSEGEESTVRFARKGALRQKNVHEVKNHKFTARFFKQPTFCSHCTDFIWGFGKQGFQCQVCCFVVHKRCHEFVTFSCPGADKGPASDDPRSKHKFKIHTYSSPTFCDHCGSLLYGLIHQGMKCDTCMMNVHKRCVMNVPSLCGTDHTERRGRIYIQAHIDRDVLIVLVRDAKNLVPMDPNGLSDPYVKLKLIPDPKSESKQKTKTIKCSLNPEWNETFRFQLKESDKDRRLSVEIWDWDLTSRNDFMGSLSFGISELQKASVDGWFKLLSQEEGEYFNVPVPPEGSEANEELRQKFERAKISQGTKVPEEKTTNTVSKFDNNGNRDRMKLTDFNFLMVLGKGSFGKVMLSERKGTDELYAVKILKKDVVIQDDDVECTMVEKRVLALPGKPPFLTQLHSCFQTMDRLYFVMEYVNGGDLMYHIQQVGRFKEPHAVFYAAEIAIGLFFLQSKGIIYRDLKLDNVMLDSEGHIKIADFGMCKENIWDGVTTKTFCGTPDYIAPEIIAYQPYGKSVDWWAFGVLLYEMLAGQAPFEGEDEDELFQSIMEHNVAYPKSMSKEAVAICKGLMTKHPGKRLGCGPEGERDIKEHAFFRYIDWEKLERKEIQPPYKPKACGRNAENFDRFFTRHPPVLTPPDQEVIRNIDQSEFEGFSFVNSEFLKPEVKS

| IC50 [1] | IC50 [2] | IC50 [3] | IC50 [4] | GSK-3β Assay Activity, % @ 1 μM ([4]; @ 1 μM) | Compound |
| --- | --- | --- | --- | --- | --- |
| 0.015 µM | 0.567 µM | 0.476 µM | 0.004 µM |  | Cn1cc(C2=C(c3nn(CCCn4ccnc4)c4ccccc34)C(=O)NC2=O)c2cc(Cl)ccc21 [Compound 1, 3-(5-Chloro-1-methyl-1H-indol-3-yl)-4-[1-(3-imidazol-1-yl-propyl)-1H-indazol-3-yl]-pyrrole-2,5-dione] |
| 0.046 µM | 1.21 µM | 0.395 µM | 0.003 µM |  | Cn1cc(C2=C(c3nn(CCCn4ccnn4)c4ccccc34)C(=O)NC2=O)c2cc(Cl)ccc21 [Compound 2, 3-(5-Chloro-1-methyl-1H-indole-3-yl)-4-[1-(3-[1,2,3]triazole-1-yl-propyl)-1H-indzol-3-yl]-pyrrole-2,5-dione] |
| 0.045 µM | 2.35 µM | 1.01 µM | 0.004 µM |  | Cn1cc(C2=C(c3nn(CCCn4ncnn4)c4ccccc34)C(=O)NC2=O)c2cc(Cl)ccc21 [Compound 3, 3-(5-Chloro-1-methyl-1H-indol-3-yl)-4-[1-(3-tetrazol-2-yl-propyl)-1H-indazol-3-yl]pyrrole-2,5-dione] |
| 0.035 µM | 0.505 µM | 0.544 µM | 0.004 µM |  | Cn1cc(C2=C(c3nn(CCCn4cnnn4)c4ccccc34)C(=O)NC2=O)c2cc(Cl)ccc21 [Compound 4, 3-(5-Chloro-1-methyl-1H-indol-3-yl)-4-[1-(3-tetrazol-1-yl-propyl)-1H-indazol-3-yl]-pyrrole-2,5-dione] |
| 0.025 µM | 0.542 µM | 1.7 µM | 0.776 µM |  | O=C1NC(=O)C(c2nn(CCCn3ncnn3)c3ccccc23)=C1c1cn(-c2ccc3ccccc3c2)c2ccccc12 [Compound 5, 3-(1-Naphthalen-2-yl-1H-indole-3-yl)-4-[1-(3-tetrazol-2-yl-propyl)-1H-indazol-3-yl]-pyrrole-2,5-dione] |
| 0.022 µM | 0.326 µM | 1.11 µM |  | 29% @ 1 μM | O=C1NC(=O)C(c2nn(CCCn3cnnn3)c3ccccc23)=C1c1cn(-c2ccc3ccccc3c2)c2ccccc12 [Compound 6, 3-(1-Naphthalen-2-yl-1H-indol-3-yl)-4-[1-(3-tetrazol-1-yl-propyl)-1H-indazol-3-yl]pyrrole-2,5-dione] |
| 0.044 µM | 0.451 µM | 1.45 µM | 0.027 µM |  | O=C1NC(=O)C(c2nn(CCCn3ncnn3)c3ccccc23)=C1c1cn(-c2cccnc2)c2ccccc12 [Compound 7, 3-(1-Pyridin-3-yl-1H-indol-3-yl)-4-[1-(3-tetrazol-2-yl-propyl)-1H-indazole-3-yl]-pyrrole-2,5-dione] |
| 0.052 µM | 1.04 µM | 4.3 µM | 0.034 µM |  | O=C1NC(=O)C(c2nn(CCCn3cnnn3)c3ccccc23)=C1c1cn(-c2cccnc2)c2ccccc12 [Compound 8, 3-(1-Pyridin-3-yl-1H-indol-3-yl)-4-[1-(3-tetrazol-1-yl-propyl)-1H-indazol-3-yl]-pyrrole-2,5-dione] |
| 0.041 µM | 2.98 µM | 1.42 µM | 0.005 µM |  | Cc1nnn(CCCn2nc(C3=C(c4cn(C)c5ccc(Cl)cc45)C(=O)NC3=O)c3ccccc32)n1 [Compound 9] |
| 0.009 µM | 0.424 µM | 0.602 µM | 0.005 µM |  | Cc1nnnn1CCCn1nc(C2=C(c3cn(C)c4ccc(Cl)cc34)C(=O)NC2=O)c2ccccc21 [Compound 10] |
| 0.123 µM | 1.36 µM | 1.93 µM | 0.005 µM |  | Cn1cc(C2=C(c3nn(CCc4nnn[nH]4)c4ccccc34)C(=O)NC2=O)c2cc(Cl)ccc21 [Compound 11, 3-(5-Chloro-1-methyl-1H-indol-3-yl)-4-{1-[2-(1H-tetrazol-5-yl)-ethyl]-1H-indazol-3-yl)-pyrrole-2,5-dione] |
| 0.069 µM | 0.554 µM | 0.226 µM | 0.107 µM |  | O=C1NC(=O)C(c2nn(CCc3nnn[nH]3)c3ccccc23)=C1c1cn(-c2cccnc2)c2ccc(Cl)cc12 [Compound 12] |
